Experimental data as given in US4312883A, “Furocoumarin for the photochemotherapy of psoriasis and related skin diseases” (Consiglio Nazionale delle Ricerche, priority 1979, dated 1982).

Legend:
DNA [1] = test: Capacity to form inter-strand cross-linkages in DNA; format: biochemical; conditions: (psr = 100)
Protocol: All these compounds were not suitable to photoinduce in DNA inter-strand cross-linkages. […] These tests were carried out according to the method of F. Bordin et al., Photochem. Photobiol., 29,1063 (1979).

psoriasis = test: Topical photochemotherapy of psoriasis in patients; format: in vivo, human; conditions: for No. of patients with Excellent result / No. of patients with Fair result / No. of patients with Good result / No. of patients with Poor result: topical 0.1% w/v + UV-A; for No. of patients with Excellent result: Excellent = 90% clearance; for No. of patients with Fair result: Fair = 50-70%; for No. of patients with Good result: Good = 70-90%; for No. of patients with Poor result: Poor 40%
Source text: Clinical data: The effectiveness of certain representative alkylangelicins according to the present invention, specifically 5-methylangelicin, 4,5'-dimethylangelicin, 4'-hydroxymethyl-4,5'-dimethylangelicin, 4'-hydroxymethyl-4,5'-dimethylangelicin and 4,5-dimethylangelicin, has been tested by measuring their capacity to resolve psoriasis in various patients. For a direct comparison the efficacy of the parent unsubstituted angelicin and that of three very effective linear furocoumarins, that is 8-methoxypsoralen (8-MOP), 5-methoxypsoralen (5-MOP), and 4,5',8-trimethylpsoralen (TMP) were also tested.
In each treatment four areas of the affected skin were used;
(a) In the first area an alcohol lotion, containing 10% glycerine, of the tested compound (0.1% w/v) was applied until a concentration of […] was reached then left to evaporate by the heat of the body. After half an hour the area was irradiated with high intensity UV-A emitting low pressure mercury fluorescent lamps with a wavelength of 320-400 nm. The irradiation doses were selected in the range of 4.5-13 J/cm^2 for each application as a function of the sensitivity of the skin of the patients; when the skin sensitivity was higher, the light doses were lower and vice versa.
(b) A second area was treated with an alcohol solution of the drug as in (a) but it was covered and maintained in the dark.
(c) A third area, where the drug was not applied, was irradiated as in (a) but in general with higher UV-A doses.
(d) A fourth area was not treated at all, neither with the drug, not with UV-A.
The treatment with the alkylangenlicins referred to above was repeated 5 time a week for two or more weeks; the total number of treatments was between 8 and 20 per subject. In some cases, as for instance with 5-methylangelicin, a good clearing of psoriasis was observed after 8 treatments.
In order to avoid induction of photosensitization processes such as redness and erythema in the reference tests made with the linear furocoumarins 8-MOP, 5-MOP, TMP, lower light doses were used than in the case of alkylangelicins, the treatments were repeated at a frequency of no more than three times a week.

[2] = tested on: RNA synthesis in Ehrlich ascites tumor cells; test: Inhibition of RNA synthesis on irradiation at 365 nm; format: cell-based; conditions: relative (ang = 100)
Source text: (§1) Photobiological activity: A significant test for assessing photobiological activity of alkylangelicins is the study of their capacity to inhibit DNA and RNA synthesis in Ehrlich ascites tumor cells. In Table III the capacity of inhibition is expressed as ID50, that is the irradiation does, in terms of quanta at 365 nm, necessary to inhibit in these cells the 50% of the DNA and RNA synthesis in the presence of a constant amount of alkylangelicin. […] Moreover, in general it can be observed that in this simple biological system a close correlation exists between photobiological activity and the capacity to induce photochemical lesions in DNA, that is photoreactivity.

epidermal DNA synthesis [3] = test: Inhibition of the synthesis of epidermal DNA of the mouse in vivo after oral administration and UV-A irradiation; conditions: oral 0.25 g/Kg, UV-A 9 J/cm^2 after two hours
Source text: Considering that the topical skin tests carried out on mice to evaluate the effectiveness of these substances has yielded data which correlate well with the clinical data, such a test conveniently modified has been adopted to evaluate the effectiveness of the alkylangelicins after oral administration followed by UV-A irradiation.
In this connection experiments have been conducted using mice 20±2 g in weight, that were starved for three hours before oral administration of the alkylangelicins. Groups of 5 mice were fed a suspension of 0.5% methylcellulose in water containing the alkylangelicins of the invention at a dosage of 0.25 g/Kg. The animals were kept in the dark for two hours, that is for the time necessary for absorption, systemic distribution and localization of the drug at the level of the skin. The animals were then irradiated with UV-A light, 9 J/cm^2. Later the animals were sacrificed and the inhibition of the epidermal DNA synthesis was tested; the results obtained are reported in Table VI. The skin on the back, protected from light by a dark paper, was assumed as a control. As a reference 8-MOP, used under the same experimental conditions, was also tested. The significant activity of the alkylangelicins according to the present invention, higher than that of 8-MOP, in inhibiting the epidermal DNA synthesis in mice upon oral administration allows one to consider these compounds as also being effective for oral administration to humans for photochemotherapy of psoriasis and of other skin diseases that are characterized by cellular hyperproliferation.

skin = test: Relative skin phototoxicity; conditions: (psr = 100)
DNA [4] = test: Photobinding to DNA, rate constants of the photoreactions; format: biochemical; conditions: for Rate constants of the photoreactions with DNA: in vitro, UV-A irradiated; for Rate constants of the photoreactions with DNA, relative: relative (ang = 100)
Source text: (b) Determined according to F. Dall'Acqua, S. Marciani, F. Zambon and G.
Rodighiero, Photochem. Photobiol., 29,489(1979).
Photobinding capacity to DNA: The introduction of one or two methyl groups in the molecule of angelicin leads to a strong increase of the photobinding to DNA; see Table II. […] Photobiol., 29, 489 (1979).

DNA [5] = test: Dark complex formation (intercalation) with DNA in the ground state, binding parameters; parameters: K (association constants) of the complexes with DNA: unit not given here; conditions: for K (association constants) of the complexes with DNA / 1/n (frequency of binding sites): in vitro, ground state; for K (association constants) of the complexes with DNA: McGhee and Von Hippel method; for 1/n (frequency of binding sites): molecules bound per nucleotide; for 1/n (frequency of binding sites), relative / K (association constants), relative: relative (ang = 100)
Source text: Dark complex formation: It is known from F. Dall'Acqua, et al. Chem.-Biol. Interactions 21,103 (1978) that the intercalated complex formed by furocoumarins with DNA strongly affects the successive photoaddition increasing the rate of photobinding. […] These parameters have been determined according to the method of McChee and Von Hippel, J.Mol.Biol, 86, 469 (1974).
(a) Determined according to Mc Ghee and Von Hippel, J. Mol. Biol.,

[6] = tested on: DNA synthesis in Ehrlich ascites tumor cells; test: Inhibition of DNA synthesis (and DNA and RNA synthesis) on irradiation at 365 nm; format: cell-based; conditions: for inhibition of DNA synthesis, relative: relative (ang = 100)
Source text: as §1

epidermal DNA synthesis [7] = test: Inhibition of epidermal DNA synthesis in the mouse in vivo after topical application and UV-A irradiation; conditions: light or radiation study, 0.01% methanol solutions, UV-A 9 J/cm^2, read-out: Percent inhibition ± standard error of epidermal DNA synthesis
Protocol: DNA samples were dissolved in water and their specific radioactivity determined.
Each drug substance was studied using at least six mice.

| Compound | capacity to form interstrand cross-linkages (DNA [1]) | No. of patients with Excellent result (psoriasis) | No. of patients with Fair result (psoriasis) | No. of patients with Good result (psoriasis) | No. of patients with Poor result (psoriasis) | inhibition of RNA synthesis, relative [2] | Percent inhibition ± standard error of epidermal DNA synthesis (epidermal DNA synthesis [3]) | Relative skin phototoxicity (skin) | Rate constants of the photoreactions with DNA (DNA [4]) | K (association constants) of the complexes with DNA (DNA [5]) | 1/n (frequency of binding sites) (DNA [5]) | 1/n (frequency of binding sites), relative (DNA [5]) | K (association constants), relative (DNA [5]) | inhibition of DNA synthesis, relative [6] | Rate constants of the photoreactions with DNA, relative (DNA [4]) | efficacy in psoriasis patients (in words) (psoriasis; topical + UV-A) | inhibition in vivo at 0.01 % (epidermal DNA synthesis [7]) | increase of K (affinity towards DNA) (DNA [5]; on introduction of a cationic moiety in addition to the two methyl groups) | photobinding capacity to DNA (in words) (DNA [4]; versus angelicin) | capacity to inhibit the DNA and RNA synthesis (in words) ([6]; Ehrlich ascites tumor cells, versus angelicin) |
| --- | --- | --- | --- | --- | --- | --- | --- | --- | --- | --- | --- | --- | --- | --- | --- | --- | --- | --- | --- | --- |
| Cc1oc2ccc3c(C)cc(=O)oc3c2c1CO [4'-hydroxymethyl-4,5'-dimethylangelicin, 4,5'-dimethyl-4'-hydroxy-methylangelicin] | 0 | 0 patients | 2 patients | 1 patients | 1 patients | 169 | 54.2 ± 6.8% | 0 | 3.2 K × 10^-2 × min^-1 | 1250 | 0.087 | 138 | 223 | 272 | – | – | – | – | – | – |
| COCc1c(C)oc2ccc3c(C)cc(=O)oc3c12 [4'-methoxymethyl-4,5'-dimethylangelicin, 4,5'-dimethyl-4'-methoxymethylangelicin] | 0 | – | – | – | – | 169 | – | 0 | 1.6 K × 10^-2 × min^-1 | 700 | 0.050 | 80 | 125 | 110 | 145 | – | – | – | – | – |
| Cc1cc(=O)oc2c1c(C)cc1occc12 [4,5-dimethylangelicin] | – | 0 patients | 0 patients | 0 patients | 2 patients | – | 55.0 ± 6.0% | – | – | – | – | – | – | – | – | equal to angelicin | 36 ± 1.1% | – | – | – |
| Cc1cc2c(cc(C)c3ccc(=O)oc32)o1 [5,5'-dimethylangelicin] | 0 | – | – | – | – | 355 | – | 0 | 2.73 K × 10^-2 × min^-1 | 1750 | 0.085 | 135 | 312 | 180 | 248 | – | 48.3 ± 2.9% | – | – | – |
| CC(=O)OCc1c(C)oc2ccc3c(C)cc(=O)oc3c12 [4'-acetoxymethyl-4,5'-dimethylangelicin, 4,5'-dimethyl-4'-acetoxymethylangelicin] | – | – | – | – | – | – | 64.8 ± 13.9% | – | – | – | – | – | – | – | – | – | 10.6 ± 4.5% | – | – | – |
| Cc1cc2c(ccc3ccc(=O)oc32)o1 [5'-methylangelicin, 5'methylangelicin] | 0 | – | – | – | – | 134 | – | 0 | 2.11 K × 10^-2 × min^-1 | 1200 | 0.073 | 116 | 214 | 150 | 191 | – | – | – | – | – |
| 4'-aminomethoxymethyl-4,5'-dimethylangelicin | – | – | – | – | – | – | – | – | – | – | – | – | – | – | – | – | – | more than 20 times | – | – |
| Cc1cc(=O)oc2c1ccc1occc12 [4-methylangelicin] | 0 | – | – | – | – | 129 | – | 0 | 1.61 K × 10^-2 × min^-1 | 1400 | 0.076 | 120 | 250 | 104 | 146 | – | 68.5 ± 19.5% | – | – | – |
| Cc1cc2c(cc(C)c3c(C)cc(=O)oc32)o1 [4,5,5'-trimethylangelicin] | – | – | – | – | – | – | – | – | – | – | – | – | – | – | – | – | – | – | close to that of angelicin | lower than that of angelicin |
